In PubChem BioAssay (NCI) one finds TGI data, which are given here for four molecules.

SMILES strings stand for the structures.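 Interpolation was linear, between the two tested concentrations surrounding the appropriate level; five concentrations were tested over 48 hours in 96-well plates. TGI is the concentration that stops growth completely.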

The first assay has as its system 786-0 renal. As to the kind of experiment: NCI anticancer screen, dose series, 48 h.
`O=C(/C=C/c1ccc(O)c(O)c1)OCC(OC(=O)/C=C/c1ccc(O)c(O)c1)C(=O)O` (centres undefined) displayed a TGI of over 100 µM.

The molecule `COc1ccc(CC2COc3cc(OC)cc(OC)c3C2=O)cc1` (centres undefined) had a TGI of 51.7 µM.

In turn, `Cc1cc(C)nc(NS(=O)(=O)c2ccc(Nc3c4ccccc4nc4ccc(C(=O)Nc5ccc(S(N)(=O)=O)cc5)cc34)cc2)n1` had a TGI of over 100 µM.

The molecule `CCOC(=O)/C=C(\C(=O)OCC)n1cc(C)c(=O)n(Cc2cn(CCCCOC(C)=O)nn2)c1=O` displayed a TGI of 16.5 µM.

In another assay the test system is A498 renal. Briefly: NCI anticancer screen, dose series, 48 h.
The molecule `O=C(/C=C/c1ccc(O)c(O)c1)OCC(OC(=O)/C=C/c1ccc(O)c(O)c1)C(=O)O` (centres undefined) returned a TGI of over 100 µM.

Molecule `COc1ccc(CC2COc3cc(OC)cc(OC)c3C2=O)cc1` (centres undefined) gave a TGI of over 100 µM.

`Cc1cc(C)nc(NS(=O)(=O)c2ccc(Nc3c4ccccc4nc4ccc(C(=O)Nc5ccc(S(N)(=O)=O)cc5)cc34)cc2)n1` returned a TGI of over 100 µM.

With `CCOC(=O)/C=C(\C(=O)OCC)n1cc(C)c(=O)n(Cc2cn(CCCCOC(C)=O)nn2)c1=O`, the TGI came to 33 µM.

The subject of the next assay is ACHN renal. As to the kind of experiment: NCI anticancer screen, dose series, 48 h.
The molecule `O=C(/C=C/c1ccc(O)c(O)c1)OCC(OC(=O)/C=C/c1ccc(O)c(O)c1)C(=O)O` (centres undefined) showed a TGI of over 100 µM.

As for `COc1ccc(CC2COc3cc(OC)cc(OC)c3C2=O)cc1` (centres undefined), the TGI was over 100 µM.

`Cc1cc(C)nc(NS(=O)(=O)c2ccc(Nc3c4ccccc4nc4ccc(C(=O)Nc5ccc(S(N)(=O)=O)cc5)cc34)cc2)n1` yielded a TGI of over 100 µM.

`CCOC(=O)/C=C(\C(=O)OCC)n1cc(C)c(=O)n(Cc2cn(CCCCOC(C)=O)nn2)c1=O` gave a TGI of 11.1 µM.

A further assay has as its system CAKI-1 renal. As to the kind of experiment: NCI anticancer screen, dose series, 48 h.
`O=C(/C=C/c1ccc(O)c(O)c1)OCC(OC(=O)/C=C/c1ccc(O)c(O)c1)C(=O)O` (centres undefined) had a TGI of over 100 µM.

Take `COc1ccc(CC2COc3cc(OC)cc(OC)c3C2=O)cc1` (centres undefined): the TGI came out at 57.1 µM.

`Cc1cc(C)nc(NS(=O)(=O)c2ccc(Nc3c4ccccc4nc4ccc(C(=O)Nc5ccc(S(N)(=O)=O)cc5)cc34)cc2)n1` had a TGI of over 100 µM.

The molecule `CCOC(=O)/C=C(\C(=O)OCC)n1cc(C)c(=O)n(Cc2cn(CCCCOC(C)=O)nn2)c1=O` gave a TGI of 10.4 µM.

A further assay has as its system HCT-15 colon. Briefly: NCI anticancer screen, dose series, 48 h.
`O=C(/C=C/c1ccc(O)c(O)c1)OCC(OC(=O)/C=C/c1ccc(O)c(O)c1)C(=O)O` (centres undefined) yielded a TGI of over 100 µM.

Take `COc1ccc(CC2COc3cc(OC)cc(OC)c3C2=O)cc1` (centres undefined): the TGI is over 100 µM.

For `Cc1cc(C)nc(NS(=O)(=O)c2ccc(Nc3c4ccccc4nc4ccc(C(=O)Nc5ccc(S(N)(=O)=O)cc5)cc34)cc2)n1`, the TGI is over 100 µM.

In turn, `CCOC(=O)/C=C(\C(=O)OCC)n1cc(C)c(=O)n(Cc2cn(CCCCOC(C)=O)nn2)c1=O` had a TGI of over 44.2 µM.

Another assay deals with HOP-92 NSCLC. As to the kind of experiment: NCI anticancer screen, dose series, 48 h.
`O=C(/C=C/c1ccc(O)c(O)c1)OCC(OC(=O)/C=C/c1ccc(O)c(O)c1)C(=O)O` (centres undefined) returned a TGI of over 100 µM.

Regarding `COc1ccc(CC2COc3cc(OC)cc(OC)c3C2=O)cc1` (centres undefined), the TGI was over 100 µM.

For the molecule `Cc1cc(C)nc(NS(=O)(=O)c2ccc(Nc3c4ccccc4nc4ccc(C(=O)Nc5ccc(S(N)(=O)=O)cc5)cc34)cc2)n1`, the TGI was over 100 µM.

Regarding `CCOC(=O)/C=C(\C(=O)OCC)n1cc(C)c(=O)n(Cc2cn(CCCCOC(C)=O)nn2)c1=O`, the TGI worked out at 4.7 µM.

The next assay relates to HS 578T breast. Briefly: NCI anticancer screen, dose series, 48 h.
The molecule `O=C(/C=C/c1ccc(O)c(O)c1)OCC(OC(=O)/C=C/c1ccc(O)c(O)c1)C(=O)O` (centres undefined) returned a TGI of over 100 µM.

On to `COc1ccc(CC2COc3cc(OC)cc(OC)c3C2=O)cc1` (centres undefined), for which the TGI amounted to 87.3 µM.

As to `Cc1cc(C)nc(NS(=O)(=O)c2ccc(Nc3c4ccccc4nc4ccc(C(=O)Nc5ccc(S(N)(=O)=O)cc5)cc34)cc2)n1`, the TGI is over 100 µM.

The molecule `CCOC(=O)/C=C(\C(=O)OCC)n1cc(C)c(=O)n(Cc2cn(CCCCOC(C)=O)nn2)c1=O` returned a TGI of 42.3 µM.

The test system of a further assay is MDA-MB-435. As to the kind of experiment: NCI anticancer screen, dose series, 48 h.
`O=C(/C=C/c1ccc(O)c(O)c1)OCC(OC(=O)/C=C/c1ccc(O)c(O)c1)C(=O)O` (centres undefined): the TGI was over 100 µM.

In turn, `COc1ccc(CC2COc3cc(OC)cc(OC)c3C2=O)cc1` (centres undefined) yielded a TGI of 18.1 µM.

The molecule `Cc1cc(C)nc(NS(=O)(=O)c2ccc(Nc3c4ccccc4nc4ccc(C(=O)Nc5ccc(S(N)(=O)=O)cc5)cc34)cc2)n1` had a TGI of over 100 µM.

On to `CCOC(=O)/C=C(\C(=O)OCC)n1cc(C)c(=O)n(Cc2cn(CCCCOC(C)=O)nn2)c1=O`, for which the TGI was 28.6 µM.

A further assay deals with NCI/ADR-RES ovarian. Briefly: NCI anticancer screen, dose series, 48 h.
The molecule `O=C(/C=C/c1ccc(O)c(O)c1)OCC(OC(=O)/C=C/c1ccc(O)c(O)c1)C(=O)O` (centres undefined) had a TGI of over 100 µM.

As for `COc1ccc(CC2COc3cc(OC)cc(OC)c3C2=O)cc1` (centres undefined), the TGI came to 39.9 µM.

`Cc1cc(C)nc(NS(=O)(=O)c2ccc(Nc3c4ccccc4nc4ccc(C(=O)Nc5ccc(S(N)(=O)=O)cc5)cc34)cc2)n1` yielded a TGI of over 100 µM.

The molecule `CCOC(=O)/C=C(\C(=O)OCC)n1cc(C)c(=O)n(Cc2cn(CCCCOC(C)=O)nn2)c1=O` registered a TGI of 57 µM.

Another assay deals with OVCAR-3 ovarian. Briefly: NCI anticancer screen, dose series, 48 h.
Turning to `O=C(/C=C/c1ccc(O)c(O)c1)OCC(OC(=O)/C=C/c1ccc(O)c(O)c1)C(=O)O` (centres undefined), the TGI was over 100 µM.

`COc1ccc(CC2COc3cc(OC)cc(OC)c3C2=O)cc1` (centres undefined) yielded a TGI of 46.5 µM.

On to `Cc1cc(C)nc(NS(=O)(=O)c2ccc(Nc3c4ccccc4nc4ccc(C(=O)Nc5ccc(S(N)(=O)=O)cc5)cc34)cc2)n1`, for which the TGI is over 100 µM.

Molecule `CCOC(=O)/C=C(\C(=O)OCC)n1cc(C)c(=O)n(Cc2cn(CCCCOC(C)=O)nn2)c1=O` yielded a TGI of 31.5 µM.

The test system of a further assay is SF-295 CNS. Briefly: NCI anticancer screen, dose series, 48 h.
In the case of `O=C(/C=C/c1ccc(O)c(O)c1)OCC(OC(=O)/C=C/c1ccc(O)c(O)c1)C(=O)O` (centres undefined), the TGI is over 100 µM.

`COc1ccc(CC2COc3cc(OC)cc(OC)c3C2=O)cc1` (centres undefined) came in with a TGI of 48.3 µM.

`Cc1cc(C)nc(NS(=O)(=O)c2ccc(Nc3c4ccccc4nc4ccc(C(=O)Nc5ccc(S(N)(=O)=O)cc5)cc34)cc2)n1` showed a TGI of over 100 µM.

Molecule `CCOC(=O)/C=C(\C(=O)OCC)n1cc(C)c(=O)n(Cc2cn(CCCCOC(C)=O)nn2)c1=O` showed a TGI of 35.5 µM.

Another assay has as its system SF-539 CNS. As to the kind of experiment: NCI anticancer screen, dose series, 48 h.
In turn, `O=C(/C=C/c1ccc(O)c(O)c1)OCC(OC(=O)/C=C/c1ccc(O)c(O)c1)C(=O)O` (centres undefined) gave a TGI of over 100 µM.

The molecule `COc1ccc(CC2COc3cc(OC)cc(OC)c3C2=O)cc1` (centres undefined) had a TGI of 37.3 µM.

`Cc1cc(C)nc(NS(=O)(=O)c2ccc(Nc3c4ccccc4nc4ccc(C(=O)Nc5ccc(S(N)(=O)=O)cc5)cc34)cc2)n1` displayed a TGI of over 100 µM.

Take `CCOC(=O)/C=C(\C(=O)OCC)n1cc(C)c(=O)n(Cc2cn(CCCCOC(C)=O)nn2)c1=O`: the TGI came to 5.17 µM.

A further assay deals with SK-OV-3 ovarian. Briefly: NCI anticancer screen, dose series, 48 h.
As for `O=C(/C=C/c1ccc(O)c(O)c1)OCC(OC(=O)/C=C/c1ccc(O)c(O)c1)C(=O)O` (centres undefined), the TGI was over 100 µM.

`COc1ccc(CC2COc3cc(OC)cc(OC)c3C2=O)cc1` (centres undefined) displayed a TGI of 56.6 µM.

For `Cc1cc(C)nc(NS(=O)(=O)c2ccc(Nc3c4ccccc4nc4ccc(C(=O)Nc5ccc(S(N)(=O)=O)cc5)cc34)cc2)n1`, the TGI was over 100 µM.

Molecule `CCOC(=O)/C=C(\C(=O)OCC)n1cc(C)c(=O)n(Cc2cn(CCCCOC(C)=O)nn2)c1=O` returned a TGI of over 70.7 µM.

For the next assay, the system named is SNB-19 CNS. As to the kind of experiment: NCI anticancer screen, dose series, 48 h.
`O=C(/C=C/c1ccc(O)c(O)c1)OCC(OC(=O)/C=C/c1ccc(O)c(O)c1)C(=O)O` (centres undefined) came in with a TGI of over 100 µM.

With `COc1ccc(CC2COc3cc(OC)cc(OC)c3C2=O)cc1` (centres undefined), the TGI was over 100 µM.

As for `Cc1cc(C)nc(NS(=O)(=O)c2ccc(Nc3c4ccccc4nc4ccc(C(=O)Nc5ccc(S(N)(=O)=O)cc5)cc34)cc2)n1`, the TGI is over 100 µM.

The molecule `CCOC(=O)/C=C(\C(=O)OCC)n1cc(C)c(=O)n(Cc2cn(CCCCOC(C)=O)nn2)c1=O` yielded a TGI of 47.3 µM.

The next assay concerns TK-10 renal. Briefly: NCI anticancer screen, dose series, 48 h.
Regarding `O=C(/C=C/c1ccc(O)c(O)c1)OCC(OC(=O)/C=C/c1ccc(O)c(O)c1)C(=O)O` (centres undefined), the TGI is over 100 µM.

`COc1ccc(CC2COc3cc(OC)cc(OC)c3C2=O)cc1` (centres undefined) came in with a TGI of 82.3 µM.

Molecule `Cc1cc(C)nc(NS(=O)(=O)c2ccc(Nc3c4ccccc4nc4ccc(C(=O)Nc5ccc(S(N)(=O)=O)cc5)cc34)cc2)n1` displayed a TGI of over 100 µM.

For `CCOC(=O)/C=C(\C(=O)OCC)n1cc(C)c(=O)n(Cc2cn(CCCCOC(C)=O)nn2)c1=O`, the TGI worked out at 18.5 µM.

The test system of another assay is UO-31 renal. As to the kind of experiment: NCI anticancer screen, dose series, 48 h.
`O=C(/C=C/c1ccc(O)c(O)c1)OCC(OC(=O)/C=C/c1ccc(O)c(O)c1)C(=O)O` (centres undefined) registered a TGI of over 100 µM.

Take `COc1ccc(CC2COc3cc(OC)cc(OC)c3C2=O)cc1` (centres undefined): the TGI was over 100 µM.

Regarding `Cc1cc(C)nc(NS(=O)(=O)c2ccc(Nc3c4ccccc4nc4ccc(C(=O)Nc5ccc(S(N)(=O)=O)cc5)cc34)cc2)n1`, the TGI was over 100 µM.

Molecule `CCOC(=O)/C=C(\C(=O)OCC)n1cc(C)c(=O)n(Cc2cn(CCCCOC(C)=O)nn2)c1=O` registered a TGI of 27.5 µM.
